Experimental data published in paper PMC5694347 (Clinical cancer research : an official journal of the …, 2015).
Marks after values point to notes of the source that are not given here.

Tested on: patients with relapsed and/or refractory lymphoma or MM
Assay: Safety: adverse events graded by NCI CTCAE version 3.0
[1] = Schedule A, n=27, high-level term

With `NS(=O)(=O)OC[C@@H]1C[C@@H](n2ccc3c(N[C@H]4CCc5ccccc54)ncnc32)C[C@@H]1O` [pevonedistat] as the molecule, how does the “ALT increased, All grades” value (Schedule A, n=27) read?
Its value is 12 (44) n (%).

What about the “AST increased, All grades” value (Schedule A, n=27) of the same molecule?
Its value is 12 (44) n (%).

What about the “Abdominal discomfort, All grades” value (Schedule A, n=27) of the same molecule?
Its value is 1 (4) n (%).

And the “Abdominal discomfort, Grade ≥3” value (Schedule A, n=27)?
The value was 0 n (%).

What about the “Anemia, All grades” value (Schedule A, n=27) of the same molecule?
Its value is 7 (26) n (%).

And the “Anemia, Grade ≥3” value (Schedule A, n=27)?
Its value is 5 (19) n (%).

And the “Any AE, All grades” value (Schedule A, n=27)?
Its value is 27 (100) n (%).

And the “Any AE, Grade ≥3” value (Schedule A, n=27)?
Its value is 16 (59) n (%).

And the “Asthenia, All grades” value (Schedule A, n=27)?
Its value is 2 (7) n (%).

And the “Asthenia, Grade ≥3” value (Schedule A, n=27)?
Its value is 0 n (%).

What about the “Back pain, All grades” value (Schedule A, n=27) of the same molecule?
The value was 3 (11) n (%).

And the “Back pain, Grade ≥3” value (Schedule A, n=27)?
The value was 0 n (%).

What about the “Blood alkaline phosphatase increased, All grades” value (Schedule A, n=27) of the same molecule?
Its value is 6 (22) n (%).

And the “Blood alkaline phosphatase increased, Grade ≥3” value (Schedule A, n=27)?
Its value is 0 n (%).

What about the “Blood creatinine increased, All grades” value (Schedule A, n=27) of the same molecule?
Its value is 4 (15) n (%).

What about the “Blood creatinine increased, Grade ≥3” value (Schedule A, n=27) of the same molecule?
The value was 0 n (%).

What about the “Chills, All grades” value (Schedule A, n=27) of the same molecule?
Its value is 5 (19) n (%).

What about the “Chills, Grade ≥3” value (Schedule A, n=27) of the same molecule?
Its value is 0 n (%).

What about the “Constipation, All grades” value (Schedule A, n=27) of the same molecule?
The value was 10 (37) n (%).

What about the “Constipation, Grade ≥3” value (Schedule A, n=27) of the same molecule?
The value was 0 n (%).

What about the “Cough, All grades” value (Schedule A, n=27) of the same molecule?
The value was 2 (7) n (%).

And the “Cough, Grade ≥3” value (Schedule A, n=27)?
Its value is 0 n (%).

And the “Decreased appetite, All grades” value (Schedule A, n=27)?
The value was 6 (22) n (%).

What about the “Decreased appetite, Grade ≥3” value (Schedule A, n=27) of the same molecule?
The value was 0 n (%).

And the “Dehydration, All grades” value (Schedule A, n=27)?
Its value is 2 (7) n (%).

And the “Dehydration, Grade ≥3” value (Schedule A, n=27)?
Its value is 0 n (%).

What about the “Diarrhea, All grades” value (Schedule A, n=27) of the same molecule?
Its value is 7 (26) n (%).

What about the “Diarrhea, Grade ≥3” value (Schedule A, n=27) of the same molecule?
Its value is 1 (4) n (%).

What about the “Dizziness, All grades” value (Schedule A, n=27) of the same molecule?
The value was 6 (22) n (%).

And the “Dizziness, Grade ≥3” value (Schedule A, n=27)?
Its value is 0 n (%).

What about the “Dyspepsia, All grades” value (Schedule A, n=27) of the same molecule?
Its value is 0 n (%).

What about the “Dyspepsia, Grade ≥3” value (Schedule A, n=27) of the same molecule?
The value was 0 n (%).

And the “Dyspnea exertional, All grades” value (Schedule A, n=27)?
The value was 0 n (%).

And the “Dyspnea exertional, Grade ≥3” value (Schedule A, n=27)?
Its value is 0 n (%).

What about the “Dyspnea, All grades” value (Schedule A, n=27) of the same molecule?
Its value is 5 (19) n (%).

What about the “Dyspnea, Grade ≥3” value (Schedule A, n=27) of the same molecule?
Its value is 1 (4) n (%).

What about the “Fatigue, All grades” value (Schedule A, n=27) of the same molecule?
Its value is 18 (67) n (%).

And the “Fatigue, Grade ≥3” value (Schedule A, n=27)?
The value was 2 (7) n (%).

And the “Headache, All grades” value (Schedule A, n=27)?
Its value is 7 (26) n (%).

What about the “Headache, Grade ≥3” value (Schedule A, n=27) of the same molecule?
The value was 0 n (%).

And the “Hyperbilirubinemia, All grades” value (Schedule A, n=27)?
The value was 1 (4) n (%).

And the “Hyperbilirubinemia, Grade ≥3” value (Schedule A, n=27)?
The value was 0 n (%).

And the “Hypercalcemia, All grades” value (Schedule A, n=27)?
Its value is 5 (19) n (%).

And the “Hypercalcemia, Grade ≥3” value (Schedule A, n=27)?
Its value is 2 (7) n (%).

And the “Hyperkalemia, All grades” value (Schedule A, n=27)?
Its value is 4 (15) n (%).

What about the “Hyperkalemia, Grade ≥3” value (Schedule A, n=27) of the same molecule?
The value was 1 (4) n (%).

What about the “Hypomagnesemia, All grades” value (Schedule A, n=27) of the same molecule?
The value was 6 (22) n (%).

What about the “Hypomagnesemia, Grade ≥3” value (Schedule A, n=27) of the same molecule?
The value was 0 n (%).

And the “Hypophosphatemia, All grades” value (Schedule A, n=27)?
The value was 5 (19) n (%).

And the “Hypophosphatemia, Grade ≥3” value (Schedule A, n=27)?
Its value is 3 (11) n (%).

And the “Insomnia, All grades” value (Schedule A, n=27)?
The value was 3 (11) n (%).

And the “Insomnia, Grade ≥3” value (Schedule A, n=27)?
The value was 0 n (%).

And the “Muscle spasms, All grades” value (Schedule A, n=27)?
Its value is 4 (15) n (%).

What about the “Myalgia, All grades” value (Schedule A, n=27) of the same molecule?
Its value is 10 (37) n (%).

And the “Myalgia, Grade ≥3” value (Schedule A, n=27)?
The value was 0 n (%).

And the “Nausea, All grades” value (Schedule A, n=27)?
The value was 12 (44) n (%).

What about the “Nausea, Grade ≥3” value (Schedule A, n=27) of the same molecule?
Its value is 0 n (%).

What about the “Neutropenia, All grades” value (Schedule A, n=27) of the same molecule?
Its value is 2 (7) n (%).

And the “Neutropenia, Grade ≥3” value (Schedule A, n=27)?
Its value is 2 (7) n (%).

What about the “Pain in extremity, All grades” value (Schedule A, n=27) of the same molecule?
The value was 4 (15) n (%).

What about the “Pain in extremity, Grade ≥3” value (Schedule A, n=27) of the same molecule?
The value was 0 n (%).

And the “Pain, All grades” value (Schedule A, n=27)?
Its value is 6 (22) n (%).

What about the “Pain, Grade ≥3” value (Schedule A, n=27) of the same molecule?
Its value is 1 (4) n (%).

And the “Paresthesia, All grades” value (Schedule A, n=27)?
Its value is 2 (7) n (%).

What about the “Paresthesia, Grade ≥3” value (Schedule A, n=27) of the same molecule?
The value was 0 n (%).

What about the “Peripheral edema, All grades” value (Schedule A, n=27) of the same molecule?
Its value is 3 (11) n (%).

What about the “Peripheral edema, Grade ≥3” value (Schedule A, n=27) of the same molecule?
The value was 0 n (%).

And the “Pneumonia, All grades” value (Schedule A, n=27)?
Its value is 1 (4) n (%).

What about the “Pneumonia, Grade ≥3” value (Schedule A, n=27) of the same molecule?
Its value is 1 (4) n (%).

And the “Productive cough, All grades” value (Schedule A, n=27)?
Its value is 2 (7) n (%).

What about the “Productive cough, Grade ≥3” value (Schedule A, n=27) of the same molecule?
The value was 0 n (%).

What about the “Pyrexia, All grades” value (Schedule A, n=27) of the same molecule?
The value was 11 (41) n (%).

What about the “Pyrexia, Grade ≥3” value (Schedule A, n=27) of the same molecule?
Its value is 0 n (%).

What about the “Sinus tachycardia, All grades” value (Schedule A, n=27) of the same molecule?
Its value is 2 (7) n (%).

And the “Sinus tachycardia, Grade ≥3” value (Schedule A, n=27)?
The value was 1 (4) n (%).

What about the “Thrombocytopenia, All grades” value (Schedule A, n=27) of the same molecule?
Its value is 3 (11) n (%).

What about the “Thrombocytopenia, Grade ≥3” value (Schedule A, n=27) of the same molecule?
The value was 1 (4) n (%).

What about the “Upper respiratory tract infection, All grades” value (Schedule A, n=27) of the same molecule?
The value was 3 (11) n (%).

And the “Upper respiratory tract infection, Grade ≥3” value (Schedule A, n=27)?
Its value is 0 n (%).

And the “Vision blurred, All grades” value (Schedule A, n=27)?
The value was 5 (19) n (%).

And the “Vision blurred, Grade ≥3” value (Schedule A, n=27)?
Its value is 0 n (%).

And the “Vomiting, All grades” value (Schedule A, n=27)?
The value was 7 (26) n (%).

What about the “Vomiting, Grade ≥3” value (Schedule A, n=27) of the same molecule?
The value was 0 n (%).

And the “Weight decreased, All grades” value (Schedule A, n=27)?
Its value is 1 (4) n (%).

What about the “Weight decreased, Grade ≥3” value (Schedule A, n=27) of the same molecule?
The value was 0 n (%).

And the “ALT increased, Grade ≥3” value (Schedule A, n=27, 1 DLT)?
Its value is 1 (4) ^a n (%).

And the “AST increased, Grade ≥3” value (Schedule A, n=27, 1 DLT)?
The value was 2 (7) ^a n (%).

And the “Muscle spasms, Grade ≥3” value (Schedule A, n=27, 1 DLT)?
Its value is 1 (4) ^a n (%).

What about the “Peripheral neuropathies NEC, All grades” value [1] of the same molecule?
The value was 3 (11) n (%).

What about the “Peripheral neuropathies NEC, Grade ≥3” value [1] of the same molecule?
The value was 0 n (%).

What about the “ALT increased, All grades” value (Schedule B, n=17) of the same molecule?
Its value is 4 (24) n (%).

And the “ALT increased, Grade ≥3” value (Schedule B, n=17)?
The value was 1 (6) n (%).

What about the “AST increased, All grades” value (Schedule B, n=17) of the same molecule?
The value was 2 (12) n (%).

And the “AST increased, Grade ≥3” value (Schedule B, n=17)?
The value was 0 n (%).

What about the “Abdominal discomfort, All grades” value (Schedule B, n=17) of the same molecule?
The value was 3 (18) n (%).
